The results in this text go back to article PMC7932537, “Quantitative profiling of protease specificity” (PLoS Computational Biology, 2021).

The test system of assay [1] is MMP-9. The assay is described as follows: Substrate phage display with NGS: relative probability (RP) of P3-P1' tetramer clusters.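 Also: ratio of tetramer probability after protease selection to that in naive phage library.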 To be noted: MMP9; RP of the substrate's P3-P1' tetramer, substrate phage display with NGS. The class given is biochemical, human.
In the next assay the target is T1, MMP-2 (Homo sapiens, UniProt P08253).
T1 sequence (P08253 110-660): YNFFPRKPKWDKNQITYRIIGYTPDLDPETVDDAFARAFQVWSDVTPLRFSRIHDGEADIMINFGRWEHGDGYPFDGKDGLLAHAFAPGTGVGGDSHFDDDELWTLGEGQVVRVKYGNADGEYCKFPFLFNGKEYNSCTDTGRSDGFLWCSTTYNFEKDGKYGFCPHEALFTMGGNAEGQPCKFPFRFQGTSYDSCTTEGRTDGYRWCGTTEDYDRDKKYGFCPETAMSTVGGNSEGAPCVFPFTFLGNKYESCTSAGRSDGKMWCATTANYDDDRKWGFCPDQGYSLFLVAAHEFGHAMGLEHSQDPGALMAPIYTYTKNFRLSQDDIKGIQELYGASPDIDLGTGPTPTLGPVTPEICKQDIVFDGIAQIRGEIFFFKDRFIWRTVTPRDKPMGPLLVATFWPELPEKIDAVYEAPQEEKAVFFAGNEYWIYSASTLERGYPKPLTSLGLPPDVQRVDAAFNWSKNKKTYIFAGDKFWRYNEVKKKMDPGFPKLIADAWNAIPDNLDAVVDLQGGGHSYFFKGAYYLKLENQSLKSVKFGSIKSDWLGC
Kind of assay: K(obs) of individual phage substrates (set of 1369). Format: biochemical. To be noted: MMP2; individual phage substrate from the set of 1369 peptides; hyphen in the sequence marks the cleavage position.

In assay [2] the target is MMP-9 (Homo sapiens, UniProt P14780). The assay is described as above. To be noted: MMP9; individual phage substrate of the set of 1369 peptides; dash in sequence marks cleavage position. The class given is biochemical.
MMP-9 (Homo sapiens, UniProt P14780), sequence (P14780 94-707): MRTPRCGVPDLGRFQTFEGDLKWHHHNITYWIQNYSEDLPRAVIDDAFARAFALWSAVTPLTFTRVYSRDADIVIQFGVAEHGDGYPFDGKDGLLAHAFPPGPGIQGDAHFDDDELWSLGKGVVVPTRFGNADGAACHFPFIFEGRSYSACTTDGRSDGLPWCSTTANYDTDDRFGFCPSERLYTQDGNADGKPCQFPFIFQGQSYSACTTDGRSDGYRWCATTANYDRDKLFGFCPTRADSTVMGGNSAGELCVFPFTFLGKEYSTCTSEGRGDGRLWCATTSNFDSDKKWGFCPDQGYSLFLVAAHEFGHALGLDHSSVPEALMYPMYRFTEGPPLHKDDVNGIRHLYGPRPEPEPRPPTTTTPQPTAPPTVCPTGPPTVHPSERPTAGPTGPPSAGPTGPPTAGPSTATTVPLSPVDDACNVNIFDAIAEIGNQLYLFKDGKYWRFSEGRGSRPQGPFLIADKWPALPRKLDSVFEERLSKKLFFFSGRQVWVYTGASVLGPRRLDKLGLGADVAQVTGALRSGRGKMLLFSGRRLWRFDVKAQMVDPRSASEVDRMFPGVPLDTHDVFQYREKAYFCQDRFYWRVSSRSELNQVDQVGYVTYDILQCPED

Turning to SGPRG-VTVTA, the “relative probability (RP)” value in the assay with MMP-9 [1] is recorded as 42.1832. For the same substance, the “Kobs” value at MMP-2 and at MMP-9 [2] was 12792.1 M⁻¹ s⁻¹ throughout.
Turning to SGPRL-YIGTA, the “relative probability (RP)” value with MMP-9 [1] turned out to be 32.3351. Moreover, the “Kobs” value on MMP-2 was 5667.28 M⁻¹ s⁻¹; at MMP-9 [2], 12792.1 M⁻¹ s⁻¹.
On the same counts, the results for SGPRN-LAVTA are 48.2698, 12792.1 M⁻¹ s⁻¹ and 12792.1 M⁻¹ s⁻¹.
On the same counts, the results for SGPRN-YHGTA are 46.9938, 12792.1 M⁻¹ s⁻¹ and 12792.1 M⁻¹ s⁻¹.
On the same counts, the results for SGPRQ-LSTTA are 43.5363, 12792.1 M⁻¹ s⁻¹ and 12792.1 M⁻¹ s⁻¹.
With SGPRS-HRVTA, the “relative probability (RP)” value in the assay with MMP-9 [1] is 23.1314. The “Kobs” value came out at 3637.04 M⁻¹ s⁻¹ on MMP-2 and 3253.29 M⁻¹ s⁻¹ at MMP-9 [2].
Regarding SGPRS-LKSTA, the “relative probability (RP)” value in the assay with MMP-9 [1] came out at 44.7764. Moreover, the “Kobs” value on MMP-2 and on MMP-9 [2] was 12792.1 M⁻¹ s⁻¹ throughout.
On to SGPRS-WTNTA, for which, in the assay with MMP-9 [1], the “relative probability (RP)” value was 40.7744. The figures for the “Kobs” value on MMP-2 and at MMP-9 [2] were 5889.62 M⁻¹ s⁻¹ and 5090.5 M⁻¹ s⁻¹, respectively.
On the same counts, the results for SGPRT-LVVTA are 42.2705, 12792.1 M⁻¹ s⁻¹ and 12792.1 M⁻¹ s⁻¹.
As to SGPRW-LMSTA, the “relative probability (RP)” value in the assay with MMP-9 [1] stood at 47.776. In addition, the “Kobs” value at MMP-2 and on MMP-9 [2] was 12792.1 M⁻¹ s⁻¹ in each case.
Regarding SGPSA-LDATA, the “relative probability (RP)” value with MMP-9 [1] is given as 47.6113. Also, the “Kobs” value at MMP-2 worked out at 5269.78 M⁻¹ s⁻¹; at MMP-9 [2], 799.117 M⁻¹ s⁻¹.
For SGPSG-WTATA, in the assay on MMP-9 [1], the “relative probability (RP)” value amounted to 29.7011. Also, the “Kobs” value on MMP-2 was 7815.03 M⁻¹ s⁻¹; on MMP-9 [2], 6131.32 M⁻¹ s⁻¹.
On the same counts, the results for SGPSH-WIGTA are 19.8718, 12792.1 M⁻¹ s⁻¹ and 7015.91 M⁻¹ s⁻¹.
On the same counts, the results for SGPSR-LTFTA are 39.8157, 12792.1 M⁻¹ s⁻¹ and 12792.1 M⁻¹ s⁻¹.
On the same counts, the results for SGPSW-IMRTA are 43.303, 12792.1 M⁻¹ s⁻¹ and 12792.1 M⁻¹ s⁻¹.
For SGPVA-MTKTA, the “relative probability (RP)” value in the assay on MMP-9 [1] is on record as 44.6624. Besides, the “Kobs” value at MMP-2 was determined as 1418.96 M⁻¹ s⁻¹; on MMP-9 [2], 6396.07 M⁻¹ s⁻¹.
On to SGPVH-MWNTA, for which, in the assay on MMP-9 [1], the “relative probability (RP)” value came out at 35.975. The “Kobs” value at MMP-2 and on MMP-9 [2] was 1154.21 M⁻¹ s⁻¹ each time.
For SGPVS-MRYTA, the “relative probability (RP)” value in the assay on MMP-9 [1] worked out at 41.2029. In addition, the “Kobs” value worked out at 12792.1 M⁻¹ s⁻¹ on MMP-2 and 7015.91 M⁻¹ s⁻¹ at MMP-9 [2].
On the same counts, the results for SGPWA-ITGTA are 50.8721, 12792.1 M⁻¹ s⁻¹ and 12792.1 M⁻¹ s⁻¹.
On the same counts, the results for SGPYS-WQVTA are 33.8051, 1513.13 M⁻¹ s⁻¹ and 4613.14 M⁻¹ s⁻¹.
Turning to SGVAG-LYSTA, the “relative probability (RP)” value in the assay on MMP-9 [1] came to 21.512. Besides, the “Kobs” value on MMP-2 came out at 12792.1 M⁻¹ s⁻¹; at MMP-9 [2], 7015.91 M⁻¹ s⁻¹.
On the same counts, the results for SGVAW-LKHTA are 35.286, 12792.1 M⁻¹ s⁻¹ and 4205.91 M⁻¹ s⁻¹.
With SGVKG-MYSTA, the “relative probability (RP)” value in the assay with MMP-9 [1] is listed as 17.5008. The “Kobs” value at MMP-2 amounted to 4335.13 M⁻¹ s⁻¹; on MMP-9 [2], 7815.03 M⁻¹ s⁻¹.
On the same counts, the results for SGVKW-LMSTA are 39.0108, 4335.13 M⁻¹ s⁻¹ and 12792.1 M⁻¹ s⁻¹.
On the same counts, the results for SGVLS-LQSTA are 27.5596, 2916.17 M⁻¹ s⁻¹ and 7015.91 M⁻¹ s⁻¹.
On the same counts, the results for SGVRA-IRQTA are 39.7636, 3253.29 M⁻¹ s⁻¹ and 12792.1 M⁻¹ s⁻¹.
In the case of SGVRA-VYSTA, the “relative probability (RP)” value in the assay with MMP-9 [1] is listed as 25.1531. Also, the “Kobs” value on MMP-2 came out at 3079.62 M⁻¹ s⁻¹; at MMP-9 [2] it was 12792.1 M⁻¹ s⁻¹.
Turning to SGVRD-LYFTA, the “relative probability (RP)” value with MMP-9 [1] was 30.416. For the same substance, the “Kobs” value at MMP-2 was determined as 1030.73 M⁻¹ s⁻¹; on MMP-9 [2], 2916.17 M⁻¹ s⁻¹.
On the same counts, the results for SGVRG-LFTTA are 42.3063, 6131.32 M⁻¹ s⁻¹ and 12792.1 M⁻¹ s⁻¹.
For the substance SGVRG-MHGTA, the “relative probability (RP)” value in the assay with MMP-9 [1] amounted to 38.9419. The “Kobs” value at MMP-2 worked out at 1610.61 M⁻¹ s⁻¹; at MMP-9 [2], 5667.28 M⁻¹ s⁻¹.
On to SGVRS-ITWTA, for which the “relative probability (RP)” value in the assay on MMP-9 [1] was found to be 25.6748. For the same substance, the figures for the “Kobs” value at MMP-2 and on MMP-9 [2] were 261.974 M⁻¹ s⁻¹ and 3637.04 M⁻¹ s⁻¹, respectively.
Regarding SGVRW-STSTA, the “relative probability (RP)” value in the assay on MMP-9 [1] turned out to be 18.5117. Further, the “Kobs” value worked out at 1071.29 M⁻¹ s⁻¹ on MMP-2 and 7015.91 M⁻¹ s⁻¹ on MMP-9 [2].
On the same counts, the results for SGVWN-LMSTA are 38.922, 3438.54 M⁻¹ s⁻¹ and 12792.1 M⁻¹ s⁻¹.
On the same counts, the results for SGWRA-YTGTA are 29.3104, 2476.66 M⁻¹ s⁻¹ and 9740.44 M⁻¹ s⁻¹.
As to SKPWK-LTASG, the “relative probability (RP)” value in the assay with MMP-9 [1] was 43.1496. Besides, the figures for the “Kobs” value on MMP-2 and at MMP-9 [2] were 1561.44 M⁻¹ s⁻¹ and 12792.1 M⁻¹ s⁻¹, respectively.
On the same counts, the results for SLPLL-LTASG are 32.5638, 2996.69 M⁻¹ s⁻¹ and 12792.1 M⁻¹ s⁻¹.
On the same counts, the results for SNPFK-YTASG are 32.6605, 0 M⁻¹ s⁻¹ and 5461.43 M⁻¹ s⁻¹.
On the same counts, the results for SQLGL-LTASG are 4.41, 12792.1 M⁻¹ s⁻¹ and 142.481 M⁻¹ s⁻¹.
Take SQPMA-YTASG: the “relative probability (RP)” value with MMP-9 [1] is reported as 49.7335. Further, the “Kobs” value on MMP-2 and at MMP-9 [2] was 12792.1 M⁻¹ s⁻¹ in each case.
On to SRPRT-LTASG, for which the “relative probability (RP)” value in the assay on MMP-9 [1] stood at 42.2705. Also, the “Kobs” value at MMP-2 and on MMP-9 [2] was 12792.1 M⁻¹ s⁻¹ each time.
For SRPVY-LTASG, the “relative probability (RP)” value with MMP-9 [1] is given as 32.5397. Moreover, the “Kobs” value on MMP-2 and at MMP-9 [2] was 12792.1 M⁻¹ s⁻¹ in each case.
As for SSPLA-LTASG, in the assay with MMP-9 [1], the “relative probability (RP)” value stood at 48.3776. Moreover, the “Kobs” value at MMP-2 and on MMP-9 [2] was 12792.1 M⁻¹ s⁻¹ throughout.
Regarding SSPLN-YTASG, the “relative probability (RP)” value in the assay on MMP-9 [1] stood at 47.778. In addition, the “Kobs” value at MMP-2 and at MMP-9 [2] was 12792.1 M⁻¹ s⁻¹ each time.
On to SSVSN-LTASG, for which the “relative probability (RP)” value in the assay on MMP-9 [1] came out at 31.0505. Further, the “Kobs” value at MMP-2 was found to be 12792.1 M⁻¹ s⁻¹; on MMP-9 [2], 1610.61 M⁻¹ s⁻¹.
On the same counts, the results for STIAH-YTASG are 10.3185, 12792.1 M⁻¹ s⁻¹ and 451.441 M⁻¹ s⁻¹.
On the same counts, the results for SVLSK-LTASG are 0.5605, 12792.1 M⁻¹ s⁻¹ and 0 M⁻¹ s⁻¹.
As for SVPSA-ITASG, the “relative probability (RP)” value in the assay with MMP-9 [1] is reported as 45.9388. Moreover, the “Kobs” value at MMP-2 and on MMP-9 [2] was 12792.1 M⁻¹ s⁻¹ each time.
For SVPST-LTASG, the “relative probability (RP)” value in the assay on MMP-9 [1] came out at 36.3405. The “Kobs” value amounted to 12792.1 M⁻¹ s⁻¹ on MMP-2 and 5269.78 M⁻¹ s⁻¹ on MMP-9 [2].
On the same counts, the results for SYPRA-YTASG are 46.2238, 12792.1 M⁻¹ s⁻¹ and 12792.1 M⁻¹ s⁻¹.
As to TDIGE-ITASG, the “relative probability (RP)” value in the assay on MMP-9 [1] is listed as 0.4519. For the same substance, the results for the “Kobs” value at MMP-2 and on MMP-9 [2] were 6131.32 M⁻¹ s⁻¹ and 0 M⁻¹ s⁻¹, respectively.
For the substance TGPKL-ITASG, the “relative probability (RP)” value in the assay on MMP-9 [1] is listed as 25.2703. The “Kobs” value is 1071.29 M⁻¹ s⁻¹ on MMP-2 and 6396.07 M⁻¹ s⁻¹ on MMP-9 [2].
On the same counts, the results for TIPSW-STASG are 17.8128, 5461.43 M⁻¹ s⁻¹ and 2476.66 M⁻¹ s⁻¹.
On the same counts, the results for TLIRY-LTASG are 33.2843, 10866.7 M⁻¹ s⁻¹ and 12792.1 M⁻¹ s⁻¹.
On the same counts, the results for TMLLA-LTASG are 6.729, 12792.1 M⁻¹ s⁻¹ and 654.784 M⁻¹ s⁻¹.
